The nature of the data set: Aqueous solubility and solubility in mixed nanomicellar formulation. The format is physicochemical. Conditions: for solubility: mixed nanomicellar formulation, aqueous with cosolvent or surfactant or cyclodextrin. Here is the method:
The ethanolic solution was evaporated under vacuum to get a thin film near-solid matter. Deionized water, 25 mL, was added to the thin film near-solid matter and sonicated for approximately 20 min to ensure complete formation of mixed micelles. The prepared 2× formulation was stored at room temperature.

Values after ≈ are worked out from the molar mass of the structure shown.

Take `C[C@@H]1C[C@H]2[C@@H]3CCC4=CC(=O)C=C[C@]4(C)[C@@]3(F)[C@@H](O)C[C@]2(C)[C@@]1(O)C(=O)CO` [dexamethasone]: the solubility stood at 1000 µg/mL (≈ 2.55 mM). Further, the improvement of solubility result (mixed nanomicellar formulation versus aqueous solubility) was “about 6.2 fold”.
Consider `CO[C@H]1C[C@@H]2CC[C@@H](C)[C@@](O)(O2)C(=O)C(=O)N2CCCC[C@H]2C(=O)O[C@H]([C@H](C)C[C@@H]2CC[C@@H](O)[C@H](OC)C2)CC(=O)[C@H](C)/C=C(\C)[C@@H](O)[C@@H](OC)C(=O)[C@H](C)C[C@H](C)/C=C/C=C/C=C/1C` [rapamycin], for which the solubility turned out to be 4000 µg/mL (≈ 4.38 mM). In addition, the improvement of solubility entry (mixed nanomicellar formulation (4 mg/mL) versus aqueous solubility) is on record as “up to 2000 fold”.

In general, solubility refers to the dissolved amount per volume that the medium holds. High values mean much dissolved substance, low ones little dissolved substance.
